From the supplement of paper PMC10307832

What was measured:
Assay in all cases: relative viability (nuclei count vs DMSO), 5 days (fraction); higher = more cells survive
Crenolanib + Luminespib = compound: CC1(COc2ccc3c(c2)ncn3-c2ccc3cccc(N4CCC(N)CC4)c3n2)COC1 [Crenolanib] + CCNC(=O)c1noc(-c2cc(C(C)C)c(O)cc2O)c1-c1ccc(CN2CCOCC2)cc1 [Luminespib] (partner 0.01 µM)
How it was run: (§1)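 Medians of duplicate plates are given as relative viability. That measure is the nuclei count in treated wells divided by the count in vehicle wells. Counts were taken on 4× images of lung cancer cell lines in 1536-well plates, 5 days after pin-tool dosing the day after seeding with one drug alone or a fixed anchor-drug dose plus five library-drug doses (not always all listed) in √10 steps.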

Crenolanib + Phenformin = compound: CC1(COc2ccc3c(c2)ncn3-c2ccc3cccc(N4CCC(N)CC4)c3n2)COC1 [Crenolanib] + N=C(N)NC(=N)NCCc1ccccc1 [Phenformin] (partner 250 µM)
How it was run: as §1

Crenolanib + Decitabine = compound: CC1(COc2ccc3c(c2)ncn3-c2ccc3cccc(N4CCC(N)CC4)c3n2)COC1 [Crenolanib] + Nc1ncn([C@H]2C[C@H](O)[C@@H](CO)O2)c(=O)n1 [Decitabine] (partner 2 µM)
How it was run: as §1

Tivantinib + Linsitinib = compound: O=C1NC(=O)[C@@H](c2cn3c4c(cccc24)CCC3)[C@@H]1c1c[nH]c2ccccc12 [Tivantinib] + C[C@]1(O)C[C@@H](c2nc(-c3ccc4ccc(-c5ccccc5)nc4c3)c3c(N)nccn32)C1 [Linsitinib] (partner 1 µM)
How it was run: as §1

Row | Cell Line | relative viability (Crenolanib + Luminespib; first compound 0.01 µM) | relative viability (Crenolanib + Luminespib; first compound 0.03162 µM) | relative viability (Crenolanib + Luminespib; first compound 0.1 µM) | relative viability (Crenolanib + Luminespib; first compound 0.3162 µM) | relative viability (Crenolanib + Luminespib; first compound 1 µM) | relative viability (Crenolanib + Phenformin; first compound 0.01 µM) | relative viability (Crenolanib + Phenformin; first compound 0.03162 µM) | relative viability (Crenolanib + Phenformin; first compound 0.1 µM) | relative viability (Crenolanib + Phenformin; first compound 0.3162 µM) | relative viability (Crenolanib + Phenformin; first compound 1 µM) | relative viability (Crenolanib + Decitabine; first compound 0.01 µM) | relative viability (Crenolanib + Decitabine; first compound 0.03162 µM) | relative viability (Crenolanib + Decitabine; first compound 0.1 µM) | relative viability (Crenolanib + Decitabine; first compound 0.3162 µM) | relative viability (Crenolanib + Decitabine; first compound 1 µM) | relative viability (Tivantinib + Linsitinib; first compound 0.01 µM) | relative viability (Tivantinib + Linsitinib; first compound 0.03162 µM) | relative viability (Tivantinib + Linsitinib; first compound 0.1 µM) | relative viability (Tivantinib + Linsitinib; first compound 0.3162 µM)
1 | NCI-H2342 | 0.822 | 0.701 | 0.779 | 0.77 | 0.807 | 0.724 | 0.525 | 0.556 | 0.652 | 0.64 | 0.766 | 0.649 | 0.742 | 0.903 | 0.694 | – | – | – | –
2 | SK-MES-1 | 0.827 | 0.728 | 0.699 | 0.83 | 0.57 | 0.655 | 0.635 | 0.687 | 0.636 | 0.583 | 0.315 | 0.451 | 0.42 | 0.385 | 0.359 | 1.13 | 1.03 | 0.98 | 0.82
3 | EPLC-272H | 0.371 | 0.574 | 0.366 | 0.168 | 0.319 | 0.356 | 0.331 | 0.224 | 0.375 | 0.382 | 0.455 | 0.391 | 0.339 | 0.391 | 0.358 | 1.07 | 1.22 | 1.19 | 0.931
4 | HCC-44 | 1.26 | 0.98 | 1.05 | 0.771 | 0.784 | 0.267 | 0.207 | 0.188 | 0.184 | 0.169 | 0.933 | 0.925 | 0.944 | 0.972 | 0.845 | 0.707 | 0.589 | 0.745 | 0.641
5 | 201T | 1.03 | 1.13 | 1.01 | 1.09 | 1.02 | 0.438 | 0.446 | 0.438 | 0.446 | 0.435 | 0.863 | 0.839 | 0.822 | 0.884 | 0.843 | 1.03 | 1.03 | 0.971 | 0.954
6 | HOP-62 | 0.944 | 0.89 | 0.859 | 0.93 | 0.813 | 0.616 | 0.711 | 0.722 | 0.815 | 0.7 | 0.222 | 0.19 | 0.29 | 0.205 | 0.234 | 1.02 | – | 1.11 | 1.15
7 | NCI-H650 | 0.839 | 0.791 | 0.777 | 0.872 | 0.757 | 0.468 | 0.405 | 0.48 | 0.445 | 0.445 | 0.295 | 0.306 | 0.281 | 0.295 | 0.33 | 0.997 | – | 0.774 | 0.973
8 | NCI-H2085 | 0.478 | 0.43 | 0.407 | 0.481 | 0.421 | 0.742 | 0.745 | 0.63 | 0.7 | 0.631 | – | 0.538 | 0.517 | 0.546 | 0.534 | 0.877 | 1.07 | 0.986 | 0.879
9 | NCI-H596 | 1.11 | 0.97 | 0.932 | 1.12 | 1.11 | 0.691 | 0.806 | 0.72 | 0.733 | 0.737 | 1.09 | 0.991 | 0.933 | 1.05 | 1.03 | 1.05 | 1.05 | 1.05 | 1.04
10 | SK-LU-1 | 0.205 | 0.246 | 0.217 | 0.208 | 0.211 | 0.61 | 0.545 | 0.39 | 0.514 | 0.517 | 0.666 | 0.703 | 0.533 | 0.66 | 0.653 | 1.07 | 1.17 | 0.982 | 1.14
11 | A-427 | 0.84 | 0.828 | 0.916 | 1.01 | 0.816 | 0.366 | 0.372 | 0.311 | 0.255 | 0.244 | 0.573 | – | 0.592 | 0.553 | 0.52 | 1.12 | 1.12 | 1.12 | 1.05
12 | NCI-H460 | 0.0489 | 0.039 | 0.0453 | 0.0313 | 0.0348 | 0.549 | 0.514 | 0.518 | 0.506 | 0.473 | 0.261 | 0.475 | 0.442 | 0.682 | 0.555 | 0.833 | 0.637 | 0.746 | 0.683
13 | NCI-H1734 | 0.174 | 0.171 | 0.191 | 0.173 | 0.291 | 0.38 | 0.405 | 0.387 | 0.421 | 0.39 | 0.55 | 0.549 | 0.507 | 0.591 | 0.507 | 0.937 | 0.846 | 0.839 | 0.85
14 | NCI-H1915 | 0.787 | 0.875 | 0.757 | 0.857 | 0.803 | 0.359 | 0.37 | 0.365 | 0.386 | 0.398 | 0.26 | 0.275 | 0.275 | 0.247 | 0.264 | 1.1 | 1.14 | 1.12 | 1.08
15 | Calu-6 | – | – | – | – | – | – | – | – | – | – | – | – | – | – | – | 1.02 | 1.04 | – | 0.963
